Tests used:
[1] = system: larvae of the diamondback moth (Plutella xylostella); assay: Plutella xylostella - spray test; assay type: in vivo; conditions: 48 h, read-out: Efficacy in % after 2 d (mortality)
Description: (§1) The expected efficacy of a given combination of two compounds is calculated as follows (see Colby, S. R., “Calculating Synergistic and antagonistic Responses of Herbicide Combinations”, Weeds 15, pp. 20-22, 1967):
(§2) • X is the efficacy expressed in % mortality of the untreated control for test compound A at a concentration of m ppm respectively m g/ha, • Y is the efficacy expressed in % mortality of the untreated control for test compound B at a concentration of n ppm respectively n g/ha, • E is the efficacy expressed in % mortality of the untreated control using the mixture of A and B at m and n ppm respectively m and n g/ha, then is
(§3) If the observed insecticidal efficacy of the combination is higher than the one calculated as “E”, then the combination of the two compounds is more than additive, i.e., there is a synergistic effect.
Solvent: 7 parts by weight of dimethylformamide
Emulsifier: 2 parts by weight of alkylaryl polyglycolether […]
After the specified period of time, the mortality in % is determined. […] The mortality values determined thus are recalculated using the Colby-formula (see sheet 1).

[2] = system: mustard beetle larvae (Phaedon cochleariae); assay: Phaedon cochleariae - spray test; assay type: in vivo; conditions: 48 h
Description: as §1, §2, §3
Solvent: 78.0 parts by weight of acetone
• 1.5 parts by weight of dimethylformamide Emulsifier: 0.5 parts by weight of alkylaryl polyglycolether To produce a suitable preparation of active compound, 1 part by weight of active compound is mixed with the stated amount of solvent and emulsifier, and the concentrate is diluted with emulsifier-containing water to the desired concentration. To produce a suitable preparation of a spore suspension the spores are diluted with emulsifier-containing water to the desired concentration.
Chinese cabbage (Brassica pekinensis) leaf-disks are sprayed with a preparation of the active ingredient of the desired concentration. Once dry, the leaf disks are infested with mustard beetle larvae (Phaedon cochleariae).
After the specified period of time, mortality in % is determined. 100% means all beetle larvae have been killed and 0% means none of the beetle larvae have been killed. The mortality values determined thus are recalculated using the Colby-formula (see sheet 1).

[3] = read-out: Efficacy in % after 2 d (mortality)

SMILES: Cc1cc(C(F)(C(F)(F)F)C(F)(F)F)ccc1NC(=O)c1cccc(Cl)c1C(=O)NC(C)(C)C#N [(I-5)]
- mortality at 0.0625 ppm ([1]; 0.0625 ppm, cabbage leaves sprayed, after 2 d): 0%
- mortality at 6 g/ha ([2]; 6 g ai/ha, after 2 d, Table A-2, read-out: Efficacy in % after 2 d (mortality)): 0%
- mortality at 12 g/ha ([2]; 12 g ai/ha, after 2 d, Table A-2, read-out: Efficacy in % after 2 d (mortality)): 0%
- mortality at 4 g/ha ([2]; foliar, 4 g ai/ha, Chinese cabbage leaf disks sprayed, after 2 d, Table A-1, read-out: Efficacy in % after 2 d (mortality)): 0%

SMILES: CC[S+]([O-])c1c(C#N)nn(-c2c(Cl)cc(C(F)(F)F)cc2Cl)c1N (centres unmarked) [Ethiprole (II-2), ethiprole]
- mortality at 1.2 g/ha [2, 3]: 33%
- mortality at 0.8 g/ha ([2]; in Brassica rapa, foliar, read-out: Efficacy in % after 2 d (mortality)): 50%

SMILES: N#Cc1nn(-c2c(Cl)cc(C(F)(F)F)cc2Cl)c(N)c1[S+]([O-])C(F)(F)F (centres unmarked) [Fipronil, fipronil]
- mortality at 0.125 ppm ([1]; in Brassica oleracea): 45%
- mortality at 0.3 g/ha [2, 3]: 0%

Reference: patent publication US9549557B2, “Insecticidal synergistic combinations of phthaldiamide derivatives and fipronil or ethiprole” (BAYER CROPSCIENCE AKTIENGESELLSCHAFT, priority 2013, dated 2017)
